Experimental data taken from PMC4774972, “Activity and Predicted Nephrotoxicity of Synthetic Antibiotics Based on Polymyxin B” (Journal of Medicinal Chemistry, 2016).
Converted amounts (≈) assume the structure as drawn. Numbered stars: 1 amine (or outer) side, 2 acyl side, 3 side chain; on linkers, the order of the positions; unused ones are H or OH. Bridge positions count the residues as written; N and C are the ends. Square brackets hold non-standard residues; d marks the D form. Peptide text beside a SMILES is read from it. * marks the point of attachment. Benzoyl(4-OPh) = O=C(c1ccc(Oc2ccccc2)cc1)*; dGly(nOct) = CCCCCCCC[C@@H](N)C(=O)O; NH(2-ClPh) = Clc1ccccc1N*; hSer = N[C@@H](CCO)C(=O)O; Octanoyl = CCCCCCCC(=O)*; Dab = NCC[C@H](N)C(=O)O; CO = O=C([*:1])[*:2]

What was measured:
HepG2 = conditions: CC50 HepG2 (µM)
[1] = system: K. pneumoniae CI Koprana 100650661:1, PmxR; conditions: MIC K. pneumoniae CI Koprana 100650661:1, PmxR (µg/mL)
[2] = system: S. aureus ATCC 25923, MSSA; conditions: MIC S. aureus ATCC 25923, MSSA (µg/mL)
[3] = system: K. pneumoniae CI 138-16357-20362, PmxR; conditions: MIC K. pneumoniae CI 138-16357-20362, PmxR (µg/mL)
[4] = system: primary human renal proximal tubule epithelial (hPT) cells; assay: Nephrotoxicity assay, GGT release; assay type: cell-based
Description: (§1) Primary human renal proximal tubule epithelial (hPT) cells were isolated and used for in vitro prediction of drug-induced nephrotoxicity[63],[64],[69] by measuring the release of metabolism enzymes, LDH and GGT, as previously described.[70]

[5] = system: primary human renal proximal tubule epithelial (hPT) cells; assay: Nephrotoxicity assay, LDH release; assay type: cell-based
Description: as §1

[6] = system: K. pneumoniae CI Koprana 100650661:1, PmxR; assay: microbe, parasite or virus in culture; assay type: cell-based, Klebsiella pneumoniae; conditions: carbapenem & polymyxin resistant clinical isolate; MHB, 5 × 10^5 CFU/mL, 18 h at 37 °C
Method: (§2) Bacteria were either obtained from American Type Culture Collection (ATCC; Manassas, VA, USA) or independent academic clinical isolate collections, as listed in Table S2. Bacteria were cultured in nutrient broth (NB; Bacto Laboratories, catalog no. 234000) or Muller Hinton broth (MHB; Bacto Laboratories, catalog no. 211443) at 37 °C overnight with shaking (∼180 rpm). A sample of each culture was then diluted 50-fold in fresh MHB and incubated at 37 °C for 1.5–3 h with shaking (∼180 rpm). Compound stock solutions were prepared as 0.64 or 2.56 mg/mL in water. The compounds, at twice the final desired concentration, were serially diluted 2-fold across the wells of 96-well plates (Polystyrene, Corning, catalogue No. 3370). Mid log phase bacterial cultures (after 1.5–3 h incubation) were diluted to a final concentration of 5 × 10^5 colony forming units (CFU)/mL, and 50 μL was added to each well giving a final compound concentration range of 32 μg/mL to 0.015 μg/mL (128–0.06 μg/mL for colistin and polymyxin B against the polymyxin resistant clinical isolates). MICs were determined visually after 18 h of incubation at 37 °C, with the MIC defined as the lowest compound concentration at which no bacterial growth was visible.
(§3) Table S2. Bacterial strains used for Minimum Inhibitory Concentration (MIC) […]
(§4) Organism Strain Strain description Strain Source
(§5) Escherichia coli ATCC 25922 FDA strain Seattle 1946 ATCC
(§6) Klebsiella pneumoniae ATCC 13883 Control strain ATCC
(§7) Klebsiella pneumoniae ATCC 700603 Multi-drug resistant ATCC
(§8) Klebsiella pneumoniae BAA-2146 Metallo-beta-lactamase- ATCC
(§9) Acinetobacter baumannii ATCC 19606 Type strain ATCC
(§10) Pseudomonas aeruginosa ATCC 27853 Type strain ATCC
(§11) Pseudomonas aeruginosa FADDI-PA070 Clinical isolate, Nation and Li labs, polymyxin resistant Monash University
(§12) Clinical isolate, Wang Hengzhuang, Pseudomonas aeruginosa PA9704 polymyxin resistant University Hospital of […]
(§13) Ptyela Clinical isolate, Ilias Karaiskos and Acinetobacter baumannii Carbapenem & Helen Giamarellou
(§14) Clinical isolate, Medicine, Hygeia
(§15) Klebsiella pneumoniae Koprana Carbapenem, & General Hospital, […]
(§16) Clinical isolate, (Instituto Dante […]
(§17) polymyxin resistant Cardiologia, São […]

[7] = system: K. pneumoniae CI 138-16357-20362, PmxR; assay: microbe, parasite or virus in culture; assay type: cell-based, Klebsiella pneumoniae
Method: as §2, §3, §4, §5, §6, §7, §8, §9, §10, §11, §12, §13, §14, §15, §16, §17

K. pneumoniae ATCC 13883 = conditions: MIC K. pneumoniae ATCC 13883 (µg/mL)
[8] = system: P. aeruginosa PA9704, PmxR; conditions: MIC P. aeruginosa PA9704, PmxR (µg/mL)
P. aeruginosa ATCC 27853 = conditions: MIC P. aeruginosa ATCC 27853 (µg/mL)
[9] = system: K. pneumoniae ATCC 700603, MDR; conditions: MIC K. pneumoniae ATCC 700603, MDR(µg/mL)
A. baumannii ATCC 19606 = conditions: MIC A. baumannii ATCC 19606 (µg/mL)
[10] = system: P. aeruginosa FADDI-PA070, PmxR; conditions: MIC P. aeruginosa FADDI-PA070, PmxR (µg/mL)
[11] = system: A. baumannii CI Ptyela 100734512:2, PmxR; conditions: MIC A. baumannii CI Ptyela 100734512:2, PmxR (µg/mL)
[12] = system: S. aureus ATCC 25923, MSSA; assay: microbe, parasite or virus in culture; assay type: cell-based, Staphylococcus aureus; conditions: MHB, 5 × 10^5 CFU/mL, read visually after 18 h at 37 °C
Method: as §2, §3, §4, §5, §6, §7, §8, §9, §10, §11, §12, §13, §14, §15, §16, §17

HepG2 cells = assay: Cytotoxicity assay (resazurin assay); assay type: cell-based, human; conditions: 4000 cells/well, 24 h incubation with compound, fluorescence 560/590
Method: Cytotoxicity to HEK293 and HepG2 cells was determined using the resazurin assay.[67],[68] […] Compounds were then added into each well. After 24 h incubation, 5 μM resazurin was added per well and incubated at 37 °C for 2 h. Fluorescence intensity was then read using a Polarstar Omega with excitation/emission 560/590. The data were then analyzed using GraphPad Prism 6 software. CC50 values were determined using GraphPad Prism 6 software (Inc. La Jolla, CA).

[13] = system: P. aeruginosa PA9704, PmxR; assay type: cell-based, Pseudomonas aeruginosa; conditions: polymyxin resistant clinical isolate; MHB, 5 × 10^5 CFU/mL, 18 h at 37 °C
Method: as §2, §3, §4, §5, §6, §7, §8, §9, §10, §11, §12, §13, §14, §15, §16, §17

[14] = system: A. baumannii CI Ptyela 100734512:2, PmxR; assay: microbe, parasite or virus in culture; assay type: cell-based, Acinetobacter baumannii; conditions: carbapenem & polymyxin resistant clinical isolate; MHB, 5 × 10^5 CFU/mL, 18 h at 37 °C
Method: as §2, §3, §4, §5, §6, §7, §8, §9, §10, §11, §12, §13, §14, §15, §16, §17

E. coli ATCC 25922 = conditions: MIC E. coli ATCC 25922 (µg/mL)
[15] = at 100 μg/mL in the primary kidney cells
[16] = carbapenem & polymyxin resistant clinical isolate, MHB, 5 × 10^5 CFU/mL, 18 h at 37 °C

| Structure (SMILES) | CC50 (HepG2) [µM] | MIC [1] [µg/mL] | MIC [2] [µg/mL] | MIC [3] [µg/mL] | MIC K. pneumoniae CI Koprana 100650661:1, PmxR [6] [µg/mL] | MIC (K. pneumoniae ATCC 13883) [µg/mL] | MIC [8] [µg/mL] | MIC (P. aeruginosa ATCC 27853) [µg/mL] | MIC [10] [µg/mL] | MIC [11] [µg/mL] | MIC K. pneumoniae CI 138-16357-20362, PmxR [7, 16] [µg/mL] | also measured |
| --- | --- | --- | --- | --- | --- | --- | --- | --- | --- | --- | --- | --- |
| CC(C)C[C@@H]1NC(=O)[C@@H](Cc2ccccc2)NC(=O)[C@H](CCN)NC(=O)[C@@H](NC(=O)[C@H](CCN)NC(=O)[C@@H](NC(=O)[C@H](CCN)NC(=O)c2ccc(Oc3ccccc3)cc2)[C@@H](C)O)CCNC(=O)[C@H]([C@@H](C)O)NC(=O)[C@H](CCN)NC(=O)[C@H](CCN)NC1=O [Compound 14] ({Benzoyl(4-OPh)}-[Dab]T[Dab][Dab][Dab][dF]L[Dab][Dab]T; lactam 4-C) | 287 | > 32 | > 32 | > 32 | >32 | – | – | – | – | – | – | release of GGT [4, 15]: almost no release; GGT release CC50 ([4]; primary human kidney cells): >128 µg/mL; release of LDH [5, 15]: almost no release; LDH release CC50 ([5]; primary human kidney cells): >128 µg/mL; MIC K. pneumoniae CI 138-16357-20362, PmxR ([7]; CI 138-16357-20362, PmxR, 18 h): >32 µg/mL |
| CCCCCCCC(=O)N[C@@H](CCN)C(=O)N[C@H](C(=O)N[C@@H](CCN)C(=O)N[C@H]1CCNC(=O)[C@H]([C@@H](C)O)NC(=O)[C@H](CCN)NC(=O)[C@H](CCN)NC(=O)[C@H](CC(C)C)NC(=O)[C@@H](Cc2ccccc2)NC(=O)[C@H](CCO)NC1=O)[C@@H](C)O [Compound 33] (Octanoyl-[Dab]T[Dab][Dab][hSer][dF]L[Dab][Dab]T; lactam 4-C) | > 300 | > 32 | > 32 | > 32 | >32 | > 32 | > 32 | > 32 | > 32 | > 32 | >32 | MIC [9]: > 32 µg/mL; MIC (A. baumannii ATCC 19606): > 32 µg/mL |
| CC(C)C[C@@H]1NC(=O)[C@@H](Cc2ccccc2)NC(=O)[C@H](CCN)NC(=O)[C@@H](NC(=O)[C@H](CCN)NC(=O)[C@@H](NC(=O)[C@H](CCN)NC(=O)Nc2ccccc2Cl)[C@@H](C)O)CCNC(=O)[C@H]([C@@H](C)O)NC(=O)[C@H](CCN)NC(=O)[C@H](CCN)NC1=O [Compound 13] ({NH(2-ClPh)-CO}-[Dab]T[Dab][Dab][Dab][dF]L[Dab][Dab]T; lactam 4-C) | > 300 | > 32 | > 32 | > 32 | >32 | – | > 32 | – | > 32 | > 32 | >32 | MIC S. aureus ATCC 25923, MSSA [12]: >32 µg/mL; HepG2 - CC50 (HepG2 cells): >300 µM; MIC P. aeruginosa PA9704, PmxR [13]: >32 µg/mL; MIC A. baumannii CI Ptyela 100734512:2, PmxR [14]: >32 µg/mL |
| CCCCCCCC[C@H]1NC(=O)[C@H](CCN)NC(=O)[C@@H](NC(=O)[C@H](CCN)NC(=O)[C@@H](NC(=O)[C@H](CCN)NC(=O)CCCCCCC)[C@@H](C)O)CCNC(=O)[C@H]([C@@H](C)O)NC(=O)[C@H](CCN)NC(=O)[C@H](CCN)NC(=O)[C@H](CC(C)C)NC1=O (Octanoyl-[Dab]T[Dab][Dab][Dab][dGly(nOct)]L[Dab][Dab]T; lactam 4-C) | 254 | 16 (≈ 13.2 µM) | 16 (≈ 13.2 µM) | 16 (≈ 13.2 µM) | – | 2 (≈ 1.65 µM) | 8 (≈ 6.6 µM) | 2 (≈ 1.65 µM) | – | 16 (≈ 13.2 µM) | – | MIC (E. coli ATCC 25922): 2 µg/mL (≈ 1.65 µM) |
